Patent US9988380B2, “Quorum sensing inhibitors” (priority 2013, dated 2018)
Read-outs that look alike come from different tables or passages of the source.

Key:
pqsA-gfp(ASV) expression = assay: Inhibition of the PQS QS system, pqsA-gfp(ASV) reporter in PAO1 wild-type and lasR mutant; type: cell-based, P. aeruginosa
Description: Inhibition of the Rhl and PQS QS systems in wild-type PAO1 and PAO1 lasR mutant. Wild-type P. aeruginosa PAO1 strains harboring either the rhlA-gfp(ASV) reporter or the pqsA-gfp(ASV) reporter, and a P. aeruginosa PAO1 lasR mutant harboring either the rhlA-gfp(ASV) reporter or the pqsA-gfp(ASV) reporter were used for this experiment (Refer to FIG. 11 for strain information). Overnight cultures of these four strains were diluted 100-fold in ABTGC media within 96-well microtitre plates to a final volume of 200 μL per well. Each of the five QSIs was added in triplicate to a final concentration of 50 μM. 0.5% DMSO was used as a negative control. The microtitre plate was incubated at 37° C. in a Tecan Infinite 200 Pro plate reader where GFP and OD600 readings were measured at 15 min intervals.
Effect of QSIs on Rhl and Pqs Quorum-Sensing Systems. In order to address the problem of the specificity of present compounds, the five identified QSI compounds were tested to see if they had any effect on the rhl and pqs systems. The five QSIs were tested against a PAO1 wild-type and a PAO1 lasR mutant harboring either the rhlA-gfp (ASV) bioreporter or the pqsA-gfp (ASV) bioreporter. The rhlA system is dependent on the RhlR/I system. By doing so, we were able to determine if a QSI is able to inhibit the other two QS systems (i.e. rhl and pqs) in a lasR-dependent/independent manner (FIG. 8).

LasR = biological target: T1, LasR (Pseudomonas aeruginosa, UniProt P25084); assay: AHL competition assay between QSI and OdDHL in heterologous E. coli lasB-gfp(ASV) strain; type: cell-based, P. aeruginosa
T1 construct: expressed in transfected cells; host or cells: E. coli lasB-gfp(ASV) reporter strain
Description: E. coli Competition Assay between QSI compounds and OdDHL. The E. coli lasB-gfp(ASV) reporter strain was used for the competition assay, which was performed in a similar manner to the P. aeruginosa LasR inhibition assay. OdDHL and the QSI to be studied were added to the wells of a microtitre plate containing ABTGC media. Wells without OdDHL and/or QSI were included as controls. An overnight culture of E. coli lasB-gfp(ASV) strain, grown in LB medium at 37° C. with shaking, was diluted to an OD600 of 0.2, and 100 μl of bacterial suspension was added to each well of the microtitre plate. […] GFP and OD600 readings were obtained as described above for the P. aeruginosa LasR inhibition assay.
AHL Competition Assay Using the Heterologous E. coli lasB-gfp (ASV) strain. The five QSI candidates were tested for their specificity in inhibiting the LasR receptor by incubating these QSIs with the E. coli lasB-gfp (ASV) reporter strain. LasR is under the control of the Lac promoter and is constitutively expressed, and only LasR can activate gfp expression in this system.

[1] = test system: elastase production by P. aeruginosa PAO1; assay: Elastase assay of culture supernatants (EnzChek Elastase Assay Kit); type: cell-based; conditions: 50 and 100 μM, 2 h cultivation
Description: Elastase Assay. P. aeruginosa PAO1 wild-type and an elastase negative lasI rhlI mutant were cultivated in LB medium overnight at 37° C. with shaking. Overnight cultures were 1:100 diluted to 5 ml ABTGC medium and incubator at 37° C. with shaking. Compound G1 was supplemented into the PAO1 cultures at final concentrations of 0, 50, 100 μM respectively. After 2 h incubation, 0.8 mL culture supernatants were sampled by centrifugation (18000 g, 4 min) and filtration through 0.2 micron filters. Elastase activity of P. aeruginosa culture supernatants was measured by using The EnzChekElastase Assay Kit (Invitrogen), which uses BODIPY-FL-labeled DQ elastin conjugate as the substrate of elastase. The BODIPY-FL-labeled DQ elastins conjugate when cleaved by elastase enzyme, yields highly fluorescent fragments. Fluorescence was recorded every 6 min for 180 min by using a Tecan Infinite 200 Pro plate reader (excitation at 490 nm, emission at 520 nm).

T1 sequence (P25084 whole entry): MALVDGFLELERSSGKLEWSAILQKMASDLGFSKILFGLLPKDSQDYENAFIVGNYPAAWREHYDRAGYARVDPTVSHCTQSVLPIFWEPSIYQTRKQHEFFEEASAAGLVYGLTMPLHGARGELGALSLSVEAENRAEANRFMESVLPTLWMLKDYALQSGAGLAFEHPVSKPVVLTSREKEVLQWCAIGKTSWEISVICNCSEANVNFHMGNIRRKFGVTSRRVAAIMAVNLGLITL

## N=c1[nH]c(=O)c2nn[nH]c2[nH]1 [Compound G1, 5-imino-4,6-dihydro-3H-1,2,3-triazolo[5,4-d]pyrimidin-7-one]
pqsA-gfp(ASV) expression; PAO1 lasR mutant, 50 μM QSI
  inhibition of pqsA-gfp expression: 24.4%
pqsA-gfp(ASV) expression; wild-type PAO1, 50 μM QSI
  inhibition of pqsA-gfp expression: 57.5%
LasR; 320 nM OdDHL with 100 μM G1
  relative fluorescence (GFP/OD600): 711.5
LasR; 100 μM G1 and no OdDHL
  relative fluorescence (GFP/OD600): 438.1
LasR; E. coli lasB-gfp(ASV), with OdDHL
  specific inhibition of LasR activity in the competition assay: specifically inhibit LasR activity
LasR; in the presence of 320 nM OdDHL
  concentration sufficient in inhibiting OdDHL-LasR induction of gfp expression: 1.56 µM
LasR; read-out: inhibition as compared to the control without G1, 100 μM G1, in the absence of OdDHL
  inhibition at 100 µM: 30.2%
LasR; read-out: inhibition as compared to the control without G1, 100 μM G1, in the presence of 320 nM OdDHL
  inhibition at 100 µM: 46.9%
[1]
  elastase production (elastase activity of culture supernatants): almost abolish elastase production
